Test results published in patent publication US20250255781A1, “PROCESSES FOR PREPARATION OF 3-D PRINTED PHARMACEUTICAL PRODUCTS” (BRISTOL-MYERS SQUIBB COMPANY, priority 2022, published 2025).

Test: Thermal gravimetric analysis (TGA) of thermal stability
Format: physicochemical
Settings: heated 25-500° C. at 10° C./min; degradation beyond
Experimental: 2-2.5 mg of polymer and drug samples were carefully weighed and positioned in to a standard aluminium pan. The samples were heated from 25° C. to 500° C. at 10° C./min. The extracted raw data were analysed via TA Universal Analysis software (Universal Analysis 2000, version 4.5A, TA instruments, USA).

## CC(C)Cc1ccc(C(C)C(=O)O)cc1 (stereo not shown) [IBU, Ibuprofen]
  thermally stable when heated up to (TGA): up to 140 °C
